Source: ChEMBL document CHEMBL1201862, “PubChem BioAssay data set” (2004)
Calls of active or inactive are those of the source.

How the values were obtained:
[1] = IC50 of Artemis nuclease activity blockers – biochemical, fluorescence intensity, dose response (AID 720701); type: functional;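 further: Artemis endonuclease enzyme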
[2] = rise of 4N DNA cells, HeLa – IC50, dose response (AID 1117351); type: functional, cell-based
[3] = rise of 2N DNA cells, HeLa – IC50, dose response (AID 1117349); type: functional, cell-based
[4] = Luminescence-based cell-based high throughput dose response assay to identify activators of the DAF-12 from the parasite S. stercoralis (ssDAF-12).; type: functional
Prothrombin = Prothrombin (Homo sapiens, UniProt P00734); assay: Thrombin 1536 HTS Dose Response Confirmation. [Related pubchem assays: 1046 (Thrombin 1536 HTS; hits were confirmed in this assay)]; type: functional
[5] = molecular target: Endoplasmic reticulum aminopeptidase 1 (Homo sapiens, UniProt Q9NZ08); assay: inhibition of human ERAP1 enzyme activity – biochemical, cherry-pick, set 2, plate reader, dose response (AID 743314)
Kallikrein-7 = Kallikrein-7 (Homo sapiens, UniProt P49862); assay: Fluorescence Intensity-based biochemical primary high throughput dose response assay to identify activators of kallikrein-7 (K7) zymogen.
[6] = cytotoxicity toward HCT116 cells – cell-based, CellTiter-Glo luminescence, IC50, dose response (AID 1117332); type: functional; details: HCT-116
[7] = HCT116 cell viability decrease, GSK3B pretreatment – CellTiter-Glo, IC50, dose response (AID 1117339); type: functional; details: HCT-116
[8] = CellTiter-Glo luminescence survival assay, SW480 colon tumor line, concentration-response curve, half-maximal inhibitory concentration (AID 1117338); type: functional
[9] = RKO cell viability reduction, dose response, CellTiter-Glo luminescence (AID 1117322); type: functional
[10] = cytotoxicity toward HT-29 cells – cell-based, CellTiter-Glo luminescence, IC50, dose response (AID 1117330); type: functional
[11] = cytotoxicity toward Colo320 cells – cell-based, CellTiter-Glo luminescence, IC50, dose response (AID 1117334); type: functional; details: COLO 320
[12] = Reduced DLD-1 viability, concentration-response, CellTiter-Glo luminescence (AID 1117352); type: functional
[13] = viability loss in human Jurkat cells – cell-based, luminescence, cytotoxicity control for P. falciparum gametocyte viability project, dose response (AID 1117277); type: functional;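 further: potency reflects loss of cellular ATP meaning fewer viable cells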
[14] = viability inhibitors of stage V gametocytes – luminescence, dose response (AID 1117278); type: functional, cell-based;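 further: gametocytes exposed to compound for 24 hours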

Kallikrein-7, sequence (P49862 whole entry): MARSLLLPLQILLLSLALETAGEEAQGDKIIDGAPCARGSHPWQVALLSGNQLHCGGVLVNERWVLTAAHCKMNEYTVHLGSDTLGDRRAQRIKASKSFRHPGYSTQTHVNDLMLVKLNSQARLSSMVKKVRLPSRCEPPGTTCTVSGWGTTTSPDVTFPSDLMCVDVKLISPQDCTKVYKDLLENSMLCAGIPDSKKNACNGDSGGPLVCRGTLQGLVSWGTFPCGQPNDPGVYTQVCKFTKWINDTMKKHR
Endoplasmic reticulum aminopeptidase 1, sequence (Q9NZ08 whole entry): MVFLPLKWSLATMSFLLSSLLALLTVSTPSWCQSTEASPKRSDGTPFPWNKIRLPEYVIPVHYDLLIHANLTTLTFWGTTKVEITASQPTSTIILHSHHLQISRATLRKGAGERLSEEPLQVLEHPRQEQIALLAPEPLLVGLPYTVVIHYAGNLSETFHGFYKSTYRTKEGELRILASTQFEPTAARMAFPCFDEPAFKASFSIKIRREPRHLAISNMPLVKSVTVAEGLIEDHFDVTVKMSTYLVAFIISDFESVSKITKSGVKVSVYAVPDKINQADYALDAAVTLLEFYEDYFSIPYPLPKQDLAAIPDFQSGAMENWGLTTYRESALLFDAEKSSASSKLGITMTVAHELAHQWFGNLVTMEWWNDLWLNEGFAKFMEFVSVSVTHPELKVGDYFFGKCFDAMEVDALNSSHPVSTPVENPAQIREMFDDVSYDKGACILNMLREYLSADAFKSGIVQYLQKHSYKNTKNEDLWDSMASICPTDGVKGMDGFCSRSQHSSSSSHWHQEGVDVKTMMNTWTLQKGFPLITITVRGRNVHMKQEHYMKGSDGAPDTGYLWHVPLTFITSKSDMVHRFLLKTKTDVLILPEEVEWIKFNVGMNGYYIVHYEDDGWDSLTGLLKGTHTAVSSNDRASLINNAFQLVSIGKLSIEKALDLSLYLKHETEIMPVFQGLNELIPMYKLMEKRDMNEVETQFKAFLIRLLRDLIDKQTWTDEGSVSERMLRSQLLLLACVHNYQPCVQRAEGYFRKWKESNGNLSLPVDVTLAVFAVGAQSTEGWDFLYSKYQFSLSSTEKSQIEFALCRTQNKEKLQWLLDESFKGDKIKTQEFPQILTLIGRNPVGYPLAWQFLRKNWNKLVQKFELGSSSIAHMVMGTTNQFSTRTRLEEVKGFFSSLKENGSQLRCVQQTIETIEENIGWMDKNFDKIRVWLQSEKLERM

COc1cccc(OC)c1-c1nn2c(-c3cc(-c4ccccc4)[nH]n3)nnc2s1
IC50 [1]: 1.96 µM (active)

O=c1[nH]c(=O)n([C@H]2C[C@H](O)[C@@H](CO)O2)cc1I [IDOXURIDINE]
IC50 [2]: > 10 µM (inactive) | IC50 [3]: > 10 µM (inactive)

CCC(C)n1ncn(-c2ccc(N3CCN(c4ccc(OC[C@H]5CO[C@](Cn6cncn6)(c6ccc(Cl)cc6Cl)O5)cc4)CC3)cc2)c1=O (stereo not given in full) [ITRACONAZOLE]
IC50 [2]: > 10 µM (inactive) | IC50 [3]: > 10 µM (inactive)

CC(C)(C)C1CCC(=NN=C(S)Nc2cccnc2)CC1 (stereo not given)
IC50 [4]: > 67.5 µM (inactive)

CCC(=O)NC(=Nc1ccc(OC)cc1)Nc1nc(C)cc(C)n1
IC50 (Prothrombin): 1.23 µM (active)

COc1ccc(-c2nn(-c3ccccc3)cc2C(=O)Nc2nc(CC(C)=O)ns2)cc1
IC50 [1]: > 20 µM (inactive)

COC(=O)Cc1c(C)c2ccc(O)c(CNCc3ccc(OC)c(OC)c3)c2oc1=O
AC50 [5]: 3.51 µM (active) | EC50 (Kallikrein-7): > 0.858 µM (active)

COc1ccc(C(=O)n2nc(-c3ccco3)nc2N)cc1
IC50 (Prothrombin): 0.828 µM (active)

Cc1cc(-c2ccc(N=Nc3c(S(=O)(=O)O)cc4cc(S(=O)(=O)O)cc(N)c4c3O)c(C)c2)ccc1N=Nc1c(S(=O)(=O)O)cc2cc(S(=O)(=O)O)cc(N)c2c1O
IC50 [6]: > 20 µM (inactive) | IC50 [7]: > 20 µM (inactive) | IC50 [8]: > 20 µM (inactive) | IC50 [9]: > 20 µM (inactive) | IC50 [10]: > 20 µM (inactive) | IC50 [11]: > 20 µM (inactive) | IC50 [12]: > 20 µM (inactive)

Cc1ccc(S(=O)(=O)N2CCN(Cc3ccccc3)CC2)c(C)c1N(C)S(=O)(=O)c1ccccc1
IC50 [13]: > 83.3 µM (inactive) | IC50 [14]: > 109 µM (inactive)
